{
  "source": "paper PMC7949122",
  "about": "(The Journal of Biological Chemistry, 2021)",
  "key": {"[1]": {"biological_target": "T1, mutant human B2R(Ø) lacking AltB2R expression (Homo sapiens, UniProt P30411)", "T1 construct": "expressed in transfected cells; host or cells: HEK293A", "T1 sequence (P30411 1-391)": "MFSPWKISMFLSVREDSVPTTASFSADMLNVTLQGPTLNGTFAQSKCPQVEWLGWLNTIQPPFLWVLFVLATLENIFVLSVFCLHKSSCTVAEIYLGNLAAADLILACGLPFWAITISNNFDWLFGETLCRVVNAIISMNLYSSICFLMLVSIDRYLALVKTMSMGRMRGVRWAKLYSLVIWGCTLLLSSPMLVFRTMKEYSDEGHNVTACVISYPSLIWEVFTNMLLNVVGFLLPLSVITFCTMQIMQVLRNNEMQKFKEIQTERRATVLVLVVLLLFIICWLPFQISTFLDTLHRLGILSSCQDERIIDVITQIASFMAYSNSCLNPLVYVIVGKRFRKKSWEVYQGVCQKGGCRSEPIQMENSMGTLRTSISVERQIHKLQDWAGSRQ", "assay": "Inositol phosphate (IP1) production, IP-One Gq assay (FRET), B2R(Ø)-transfected HEK293A cells (lacking AltB2R)", "type": "cell-based", "conditions": "HEK293-A; Emax in B2R(Ø) versus B2R cells; read-out: reduction of efficacy (Emax) for IP1 formation in cells without AltB2R expression", "procedure": "This construct is a monocistronic version of B2R with the mutation C168T. In this mutant, a premature stop codon is introduced in the AltB2R coding sequence (Q11stop) in a manner synonymous for B2R (L56 L). Thus, the B2R encodes B2R and AltB2R, whereas mutant B2R^(Ø) encodes only B2R.\nTo consolidate the western blot data, AlphaLISA assays were also conducted in parallel in the same cell lines for the quantitative analyses of B2R-stimulated ERK1/2 phosphorylation (Fig. 5, B and C).\nQuantitative densitometry analysis of pERK1/2 levels over time (top right). pERK/total ERK ratios were calculated for each time point.\nHeLa, HEK293T, and HEK293A cells were maintained in Dulbecco's modified Eagle's medium (DMEM) containing 10% fetal bovine serum (FBS) (Wisent, #080-450) and 1% antibiotic-antimycotic (Wisent, #450-115-EL) under standard conditions. HEK293A cells were transiently transfected with the pcDNA3.1-vector containing the cDNA of human B2R or B2R^(Ø), using polyethylenimine (PEI) or JetPrime (Polyplus). HeLa cells were transiently transfected with B2R and AltB2R constructs using GeneCellin (Bulldog Bio Inc) or JetPrime (Polyplus) transfection reagent, as per the manufacturer’s instructions, and incubated 24 h at 37 °C, unless otherwise stated.\nInositol monophosphate (IP1) production was determined using the IP-One Gq assay kits (Cisbio, #62IPAPEB), according to the manufacturer's instructions. Fluorescence resonance energy transfer (FRET) signals were measured with a Tecan M1000 plate reader."}, "[2]": {"biological_target": "T1, mutant human B2R(Ø) lacking AltB2R expression", "assay": "Competitive displacement of [3H]-BK binding, living B2R(Ø)-transfected HEK293A cells", "conditions": "n = 3", "procedure": "Black and gray, negative controls with secondary antibodies only; blue, ^FlagB2R transfected cells; red, ^FlagB2R^(Ø) transfected cells. […] Reported Kd are expressed in nM. Bmax is expressed in fmol/10^6 cells.\nRadioligand competition binding assay was performed using adherent living HEK293A cells transiently transfected with B2R or B2R^(Ø), as we previously described ([54]). […] Saturation binding assays were performed using adherent living HEK293A cells transiently transfected with B2R or B2R^(Ø). […] After the incubation time, cells were washed twice with ice-cold PBS, lysed with 200 μl of 0.1 N sodium hydroxide, and transferred into scintillation vials containing 4 ml scintillation liquid. The radioactivity was measured with a β-counter and data were analyzed using GraphPad 6.01 (GraphPad Software, Inc)."}},
  "note": "Residues, ends and D or L forms follow the SMILES beside them. No end group written: not given here.",
  "data": [
    {"compound": "COc1ccc(C[C@@H](CN[C@@H](CCCNC(=N)N)C(=O)O)NC(=O)[C@@H]2CCCN2C(=O)[C@H](CO)NC(=O)[C@H](Cc2cccs2)NC(=O)CNC(=O)[C@@H]2C[C@@H](O)CN2C(=O)[C@@H]2CCCN2C(=O)[C@@H](N)CCCNC(=N)N)cc1", "note": "[RMP-7, [Hyp^3,Thi^5,(4-Me)Tyr^8(ΨCH2NH)Arg^9]-BK] (HELM PEPTIDE1{R.P.[Hyp].G.[O=C([C@H](Cc1cccs1)N[*:1])[*:2]].S.P.[COc1ccc(C[C@@H](CN[C@@H](CCCNC(=N)N)C(=O)O)N[*:1])cc1]}$$$$V2.0)", "values": [
      {"measurement": "Emax", "setting": "[1]", "result": 16, "unit": "%"}
    ]},
    {"compound": "RPPGFSPFR [BK, H-Arg^1-Pro^2-Pro^3-Gly^4-Phe^5-Ser^6-Pro^7-Phe^8-Arg^9-OH]", "values": [
      {"measurement": "binding affinity, B2R versus B2R(Ø)", "setting": "[2]", "result": "same affinities"}
    ]}
  ]
}
